Our source for the EC50 values is patent publication US9920010B2, “CXCR7 receptor modulators” (IDORSIA PHARMACEUTICALS LTD, priority 2013, dated 2018).

Molecules are shown by their SMILES.

In the experiment the target is T1, CXCR7 (Homo sapiens, UniProt P25106).
T1 construct: host or cells: CHO-K1 (PathHunter CHO-K1 CXCR7 b-arrestin cell line, stably transfected)
Description: PathHunter CHO-K1 CXCR7 b-arrestin recruitment assay (CXCR7 agonistic activity). The settings on record: PathHunter CHO-K1 CXCR7 b-arrestin cell line. The format is cell-based. As to the method: The CXCl12 receptor and CXCR7 agonistic activities of the compounds of formula (I) are determined in accordance with the following experimental method.
The assay is using the PathHunter™ CHO-K1 CXCR7 b-arrestin cell line from DiscoverX. The system is based on the Enzyme Fragment Complementation Technology. Two complementing fragments of the b-galactosidase enzyme are expressed within stably transfected cells. The larger portion of b-gal, termed EA for Enzyme Acceptor, is fused to the C-terminus of b-arrestin 2. The smaller fragment, termed ProLink™ tag, is fused to CXCR7 at the C-terminus. Upon activation, b-arrestin is recruited which forces the interaction of ProLink and EA, allowing complementation of the two fragments of b-gal and the formation of a functional enzyme which is capable of hydrolysing the substrate and generating a chemiluminescent signal.
CHO-K1 CXCR7 b-arrestin cells are detached from culture dishes with a cell dissociation buffer (Invitrogen, #13151-014) and collected in growing medium (F12 HAMS 90% (v/v)/FCS 10% (v/v), Penicillin/streptomycin 1% (v/v)). 5000 cells per well (in 20 μl) are seeded in a 384 well plate (white-walled, clear bottom; BD Falcon #353274). The plate is incubated at 37° C./5% CO2 for 24 hours. Medium is then replaced by 20 μl OPTIMEM (Invitrogen #31985) for 3 to 4 hours. Test compounds are dissolved at 10 mM in DMSO and serially diluted in DMSO to 200× of the final concentration for dose response curves. Compounds are then diluted 1:33.3 in HBSS1×. 5 μl/well of HBSS1×/20 mM HEPES/0.2% BSA are added to the assay plate followed by addition of 5 μl/well of diluted compounds. CXCL12 (Peprotech #300-28A) may be used as a reference agonist. The plate is incubated for 90 minutes at 37° C. 12 μl of detection reagent (Path Hunter Detection Kit, DiscoveRx, #93-0001) is transferred to the assay plate and to the plate is incubated for 1 hour at room temperature. Luminescent signal is read in a microplate reader (FLUOstar Optima, bmg). The calculated EC50 values may fluctuate depending on the daily cellular assay performance. Fluctuations of this kind are known to those skilled in the art. Average EC50 values from several measurements are given as geometric mean values.

T1 sequence (P25106 whole entry): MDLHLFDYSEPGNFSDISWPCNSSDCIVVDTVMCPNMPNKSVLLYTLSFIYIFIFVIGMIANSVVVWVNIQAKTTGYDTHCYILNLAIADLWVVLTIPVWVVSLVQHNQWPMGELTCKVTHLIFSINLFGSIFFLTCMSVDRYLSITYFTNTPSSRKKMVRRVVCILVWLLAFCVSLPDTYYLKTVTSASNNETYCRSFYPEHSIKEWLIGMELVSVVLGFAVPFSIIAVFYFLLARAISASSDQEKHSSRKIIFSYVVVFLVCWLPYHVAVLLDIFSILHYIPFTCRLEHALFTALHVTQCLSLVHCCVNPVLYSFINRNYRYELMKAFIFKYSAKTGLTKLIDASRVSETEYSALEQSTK
T1 sequence (P32121 whole entry partner): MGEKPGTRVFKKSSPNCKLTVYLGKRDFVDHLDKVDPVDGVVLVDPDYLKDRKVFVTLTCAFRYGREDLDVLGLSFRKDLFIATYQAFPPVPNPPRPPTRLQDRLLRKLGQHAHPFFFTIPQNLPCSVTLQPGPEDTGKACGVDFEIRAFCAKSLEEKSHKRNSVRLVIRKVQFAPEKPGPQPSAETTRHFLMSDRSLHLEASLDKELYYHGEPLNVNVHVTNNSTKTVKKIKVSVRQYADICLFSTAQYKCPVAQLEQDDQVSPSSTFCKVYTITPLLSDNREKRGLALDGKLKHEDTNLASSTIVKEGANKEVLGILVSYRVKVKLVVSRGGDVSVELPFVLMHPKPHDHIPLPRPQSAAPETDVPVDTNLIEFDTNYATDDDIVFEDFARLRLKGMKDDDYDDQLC

Usually EC50 stands for the concentration that produces a half-maximal response. With `CN(C)CCN(Cc1ccccc1Br)C(=O)CNc1cccc2c1CCN(CC1CC1)C2` [Example 234, N-(2-Bromo-benzyl)-2-(2-cyclopropylmethyl-1,2,3,4-tetrahydro-isoquinolin-5-ylamino)-N-(2-dimethylamino-ethyl)-acetamide], the response was half-maximal at 3 nM (EC50).
The value for `O=C(/C=C/c1cccc2c1CCN(CC1CC1)C2)N(CCN1CCC(F)(F)CC1)Cc1ncccc1Cl` [Example 334, (E)-N-(3-Chloro-pyridin-2-ylmethyl)-3-(2-cyclopropylmethyl-1,2,3,4-tetrahydro-isoquinolin-5-yl)-N-[2-(4,4-difluoro-piperidin-1-yl)-ethyl]-acrylamide] was 13 nM; that for `O=C(CNc1cccc2c1CCN(CC1CC1)C2)N(CCN1CCCC(F)(F)C1)Cc1ccccc1C(F)(F)F` [Example 281, 2-(2-Cyclopropylmethyl-1,2,3,4-tetrahydro-isoquinolin-5-ylamino)-N-[2-(3,3-difluoro-piperidin-1-yl)-ethyl]-N-(2-trifluoromethyl-benzyl)-acetamide] was 43 nM; that for `CC(C)CN1CCc2cccc(NCC(=O)N(CCN(C)C)Cc3ccccc3C(F)(F)F)c2C1` [compound 557, N-(2-Dimethylamino-ethyl)-2-(2-isobutyl-1,2,3,4-tetrahydro-isoquinolin-8-ylamino)-N-(2-trifluoromethyl-benzyl)-acetamide] was 5 nM.
The value for `CNCCN(Cc1ccccc1C(F)(F)F)C(=O)CNc1cccc2c1CCN(C(=O)NC1CCCCC1)C2` [compound 407] was 326 nM; that for `COc1ccc(CCN(CCN(C)C)C(=O)CNc2cccc3c2CCN(CC2CC2)C3)cc1OC` [Example 59, 2-(2-Cyclopropylmethyl-1,2,3,4-tetrahydro-isoquinolin-5-ylamino)-N-[2-(3,4-dimethoxy-phenyl)-ethyl]-N-(2-dimethylamino-ethyl)-acetamide] was 147 nM.
`CCN1CCc2cccc(NCC(=O)N(CCN(C)C)Cc3cncc(Cl)c3)c2C1` [compound 533] gave an EC50 of 359 nM.
The value for `CCN1CCc2cccc(NCC(=O)N(CCC3CCCN3C)Cc3ccccc3)c2C1` (racemic) [compound 508] was 34 nM.
The value for `CCN1CCc2cccc(NCC(=O)N(Cc3ccccc3)C3CCN(C)C3)c2C1` (racemic) [compound 512] was 56 nM.
The value for `C=CCN(C)CCN(Cc1ccccc1C(F)(F)F)C(=O)CNc1cccc2c1CN(CC=C)CC2` [compound 463, N-[2-(Allyl-methyl-amino)-ethyl]-2-(2-allyl-1,2,3,4-tetrahydro-isoquinolin-8-ylamino)-N-(2-trifluoromethyl-benzyl)-acetamide] was 16 nM; that for `CN(C)CCN(Cc1ccccc1C(F)(F)F)C(=O)CNc1cccc2c1CN(C(N)=O)CC2` [compound 562] was 100 nM; that for `CC(C)(C)OC(=O)NCCN(Cc1ccccc1C(F)(F)F)C(=O)CNc1cccc2c1CCN(CC1CC1)C2` [Example 273, {2-[[2-(2-Cyclopropylmethyl-1,2,3,4-tetrahydro-isoquinolin-5-ylamino)-acetyl]-(2-trifluoromethyl-benzyl)-amino]-ethyl}-carbamic acid tert-butyl ester] was 144 nM.
For the compound `O=C(CNc1cccc2c1CCN(CC1CC1)C2)N(CCN1CCOCC1)Cc1ccccc1C(F)(F)F` [Example 64, 2-(2-Cyclopropylmethyl-1,2,3,4-tetrahydro-isoquinolin-5-ylamino)-N-(2-morpholin-4-yl-ethyl)-N-(2-trifluoromethyl-benzyl)-acetamide], the half-maximal effective concentration (EC50) was determined as 8 nM.
The value for `CN(C)CCN(Cc1ccccc1)C(=O)CNc1cccc2c1CCN(CCc1ccccc1)C2` [compound 126] was 249 nM.
The result for `CCC(=O)N1CCc2c(cccc2NCC(=O)N(CCN(C)C)Cc2ccccc2C)C1` [Example 15, N-(2-Dimethylamino-ethyl)-N-(2-methyl-benzyl)-2-(2-propionyl-1,2,3,4-tetrahydro-isoquinolin-5-ylamino)-acetamide] reads 15 nM; that for `NCCN(Cc1ccc(C(F)(F)F)cc1)C(=O)CNc1cccc2c1CCN(CC1CC1)C2` [Example 73, N-(2-Amino-ethyl)-2-(2-cyclopropylmethyl-1,2,3,4-tetrahydro-isoquinolin-5-ylamino)-N-(4-trifluoromethyl-benzyl)-acetamide], 66 nM.
The result for `O=C(CNc1cccc2c1CCN(CC1CC1)C2)N(CCN1CCCC1)Cc1ccccc1` [Example 41, N-Benzyl-2-(2-cyclopropylmethyl-1,2,3,4-tetrahydro-isoquinolin-5-ylamino)-N-(2-pyrrolidin-1-yl-ethyl)-acetamide] reads 5 nM; that for `CCN1CCc2cccc(NCC(=O)N(CCN(C)C)Cc3nc(C)cs3)c2C1` [compound 536], 92 nM.
The compound `CCN1Cc2c(NCC(=O)N(CCN(C)C)Cc3ccccc3Cl)cccc2C(C)(C)C1` [compound 196] registered a concentration giving a half-maximal response (EC50) of 264 nM.
The result for `CC(C)N(C)CCN(Cc1ccccc1C(F)(F)F)C(=O)CNc1cccc2c1CCN(CC1CC1)C2` [compound 449, 2-(2-Cyclopropylmethyl-1,2,3,4-tetrahydro-isoquinolin-5-ylamino)-N-[2-(isopropyl-methyl-amino)-ethyl]-N-(2-trifluoromethyl-benzyl)-acetamide] reads 1 nM.
As to `CNCCN(Cc1ncccc1C(F)(F)F)C(=O)CNc1cccc2c1CCN(C(=O)OCC(C)(C)C)C2` [compound 428], the concentration giving a half-maximal response (EC50) is 120 nM.
The result for `CCN1CCc2cccc(NCC(=O)N(CCN(C)C)Cc3ccccc3OC)c2C1` [compound 497] reads 77 nM; that for `CN(C)CCN(Cc1ncccn1)C(=O)CNc1cccc2c1CCN(CC1CC1)C2` [Example 260, 2-(2-Cyclopropylmethyl-1,2,3,4-tetrahydro-isoquinolin-5-ylamino)-N-(2-dimethylamino-ethyl)-N-pyrimidin-2-ylmethyl-acetamide], 125 nM.
For the compound `CC(=O)N1CCc2c(cccc2NCC(=O)N(CCN(C)C)Cc2ccccc2)C1` [Example 108, 2-(2-Acetyl-1,2,3,4-tetrahydro-isoquinolin-5-ylamino)-N-benzyl-N-(2-dimethylamino-ethyl)-acetamide], the EC50 turned out to be 52 nM.
The value for `COCCN1CCc2c(/C=C/C(=O)N(Cc3ccccc3C(F)(F)F)CC(C)(C)O)cccc2C1` [Example 323, (E)-N-(2-Hydroxy-2-methyl-propyl)-3-[2-(2-methoxy-ethyl)-1,2,3,4-tetrahydro-isoquinolin-5-yl]-N-(2-trifluoromethyl-benzyl)-acrylamide] was 182 nM; that for `O=C(CNc1cccc2c1CCN(CC1CC1)C2)N(CCN1CCCC1)Cc1ccccc1Cl` [Example 43, N-(2-Chloro-benzyl)-2-(2-cyclopropylmethyl-1,2,3,4-tetrahydro-isoquinolin-5-ylamino)-N-(2-pyrrolidin-1-yl-ethyl)-acetamide] was 2 nM.
The result for `CN(C)CCN(Cc1ccccc1C(F)(F)F)C(=O)CNc1cccc2c1CCN(C(=O)C1(C(F)(F)F)CC1)C2` [Example 571, N-(2-Dimethylamino-ethyl)-N-(2-trifluoromethyl-benzyl)-2-[2-(1-trifluoromethyl-cyclopropanecarbonyl)-1,2,3,4-tetrahydro-isoquinolin-5-ylamino]-acetamide] reads 86 nM; that for `CNCCN(Cc1ccccc1C(F)(F)F)C(=O)CNc1cccc2c1CCN(C(=O)CC(C)C)C2` [compound 391, N-(2-Methylamino-ethyl)-2-[2-(3-methyl-butyryl)-1,2,3,4-tetrahydro-isoquinolin-5-ylamino]-N-(2-trifluoromethyl-benzyl)-acetamide], 49 nM; that for `CN(C)CCN(Cc1ccccc1C(F)(F)F)C(=O)/C=C/c1cccc2c1CCN(CC1CC1)C2` [compound 150, (E)-3-(2-Cyclopropylmethyl-1,2,3,4-tetrahydro-isoquinolin-5-yl)-N-(2-dimethylamino-ethyl)-N-(2-trifluoromethyl-benzyl)-acrylamide], 1 nM.
As to `CCC(=O)N1CCc2c(cccc2NCC(=O)N(CCN2CCCC2)Cc2ccccc2)C1` [Example 24, N-Benzyl-2-(2-propionyl-1,2,3,4-tetrahydro-isoquinolin-5-ylamino)-N-(2-pyrrolidin-1-yl-ethyl)-acetamide], a half-maximal response (EC50) required 28 nM.
The result for `COC(=O)CN1CCc2c(cccc2NCC(=O)N(CCN(C)C)Cc2ncccc2C(F)(F)F)C1` [Example 370, [5-({[(2-Dimethylamino-ethyl)-(3-trifluoromethyl-pyridin-2-ylmethyl)-carbamoyl]-methyl}-amino)-3,4-dihydro-1H-isoquinolin-2-yl]-acetic acid methyl ester] reads 40 nM.
